Like-named read-outs stand apart in the source and are kept apart here.
How the values were obtained:
[1] = system: 6H5L_RA2; experiment: retro-aldol fluorescence assay; assay type: biochemical, synthetic construct; settings: 50 mM sodium phosphate, 150 mM NaCl, 7.5% DMSO, pH 8, 29 °C
[2] = system: 6H5L; experiment: retro-aldol fluorescence assay; assay type: biochemical, synthetic construct; settings: 50 mM sodium phosphate, 150 mM NaCl, 7.5% DMSO, pH 8, 29 °C
[3] = system: 6H5L_RA1; experiment: retro-aldol fluorescence assay; assay type: biochemical, synthetic construct; settings: 50 mM sodium phosphate, 150 mM NaCl, 7.5% DMSO, pH 8, 29 °C
[4] = system: 6H5L; settings: 6H5L_K223; 50 mM sodium phosphate, 150 mM NaCl, 7.5% DMSO, pH 8, 29 °C
[5] = system: 6H5L_Top; experiment: retro-aldol fluorescence assay; assay type: biochemical, synthetic construct; settings: 50 mM sodium phosphate, 150 mM NaCl, 7.5% DMSO, pH 8, 29 °C

Work on COc1ccc2cc(C(O)CC(C)=O)ccc2c1 (racemic) [compound 3, 4-hydroxy-4-(6-methoxy-2-naphthyl)-2-butanone] yielded a Km [1] of 1.55 ± 0.225 mM, a Km [2] of 371 ± 62 µM and a Km [3] of 1.04 ± 0.128 mM. It also gave a Km [4] of 967 ± 211 µM and a Km [5] of 453 ± 49.3 µM.
